Results as given in paper PMC3946900 (Pharmaceutical research, 2013).
Read-outs that look alike come from different tables or passages of the source.

Assays:
P-gp (mdr1) = conditions: cited from earlier work
P-gp = experiment: Compartmental models of apical efflux fit to permeability data
[1] = target: P-glycoprotein (P-gp, ABCB1; MDR1) (Homo sapiens, UniProt P08183); conditions: MDCK-MDR1 cells with and without CsA
[2] = 5C model, asa = 1, lipid content = 10%

P-glycoprotein (P-gp, ABCB1; MDR1), sequence (P08183 whole entry): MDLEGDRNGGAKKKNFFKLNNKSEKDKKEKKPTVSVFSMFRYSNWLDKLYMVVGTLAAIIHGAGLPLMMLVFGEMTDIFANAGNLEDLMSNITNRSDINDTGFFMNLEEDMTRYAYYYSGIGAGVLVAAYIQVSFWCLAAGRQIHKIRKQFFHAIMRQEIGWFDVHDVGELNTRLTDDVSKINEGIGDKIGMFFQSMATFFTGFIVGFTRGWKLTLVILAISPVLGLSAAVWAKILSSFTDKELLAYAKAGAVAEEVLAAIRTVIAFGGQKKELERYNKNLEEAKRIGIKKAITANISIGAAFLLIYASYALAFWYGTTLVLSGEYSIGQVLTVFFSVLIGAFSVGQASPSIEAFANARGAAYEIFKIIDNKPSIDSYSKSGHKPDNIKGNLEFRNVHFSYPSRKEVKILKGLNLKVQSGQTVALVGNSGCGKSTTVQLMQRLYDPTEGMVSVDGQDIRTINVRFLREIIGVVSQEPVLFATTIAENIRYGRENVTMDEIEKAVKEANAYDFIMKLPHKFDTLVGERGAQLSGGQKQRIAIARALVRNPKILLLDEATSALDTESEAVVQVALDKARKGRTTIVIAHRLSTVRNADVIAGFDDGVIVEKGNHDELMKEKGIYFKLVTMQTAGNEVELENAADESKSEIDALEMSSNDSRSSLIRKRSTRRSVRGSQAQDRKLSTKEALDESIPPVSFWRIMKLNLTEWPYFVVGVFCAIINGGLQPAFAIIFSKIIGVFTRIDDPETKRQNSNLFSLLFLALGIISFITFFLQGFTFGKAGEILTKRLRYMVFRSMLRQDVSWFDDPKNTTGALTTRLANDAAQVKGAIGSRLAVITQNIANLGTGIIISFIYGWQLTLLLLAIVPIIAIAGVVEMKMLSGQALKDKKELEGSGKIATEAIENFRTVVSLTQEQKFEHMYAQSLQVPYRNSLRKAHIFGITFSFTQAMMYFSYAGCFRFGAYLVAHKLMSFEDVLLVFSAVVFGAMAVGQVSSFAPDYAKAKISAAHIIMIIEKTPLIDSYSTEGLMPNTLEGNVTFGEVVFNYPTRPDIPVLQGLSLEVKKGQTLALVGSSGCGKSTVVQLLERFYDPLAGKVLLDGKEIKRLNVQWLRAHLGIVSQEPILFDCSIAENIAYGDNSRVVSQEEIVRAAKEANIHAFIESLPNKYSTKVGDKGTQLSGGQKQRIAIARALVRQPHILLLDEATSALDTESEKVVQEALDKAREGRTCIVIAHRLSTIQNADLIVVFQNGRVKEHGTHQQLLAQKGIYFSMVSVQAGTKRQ

SMILES: Cc1c(O)cccc1C(=O)N[C@@H](CSc1ccccc1)[C@H](O)CN1C[C@H]2CCCC[C@H]2C[C@H]1C(=O)NC(C)(C)C [Nelfinavir]
- Brain Conc. Ratio mdr1(−/−)/mdr1(+/+) (P-gp (mdr1); mice, brain): 16.1
- Liver Conc. Ratio mdr1(−/−)/mdr1(+/+) (P-gp (mdr1); mice, liver): 3.0

SMILES: Nc1cc(N2CCCCC2)nc(N)[n+]1[O-] [Minoxidil]
- CLae (active apical efflux clearance) (P-gp): 0.021 µL/min

SMILES: C/C=C/C[C@@H](C)C(=O)[C@H]1C(=O)N[C@@H](C(C)C)C(=O)N(C)CC(=O)N(C)[C@@H](CC(C)C)C(=O)N[C@@H](C(C)C)C(=O)N(C)[C@@H](CC(C)C)C(=O)N[C@@H](C)C(=O)N[C@H](C)C(=O)N(C)[C@@H](CC(C)C)C(=O)N(C)[C@@H](CC(C)C)C(=O)N(C)[C@@H](C(C)C)C(=O)N1C [SDZ PSC 833]
- Brain Conc. Ratio mdr1(−/−)/mdr1(+/+) (P-gp (mdr1); mice, brain): 2.1
- Liver Conc. Ratio mdr1(−/−)/mdr1(+/+) (P-gp (mdr1); mice, liver): 0.9

SMILES: CN(C(=O)C(c1ccccc1)c1ccccc1)[C@H](CN1CC[C@H](O)C1)c1ccccc1 [Asimadoline]
- Brain Conc. Ratio mdr1(−/−)/mdr1(+/+) (P-gp (mdr1); mice, brain): 9.1
- Liver Conc. Ratio mdr1(−/−)/mdr1(+/+) (P-gp (mdr1); mice, liver): 1.1

SMILES: CO[C@H]1C[C@H](O[C@@H]2/C(C)=C/C[C@@H]3C[C@@H](C[C@]4(CC[C@H](C)[C@@H](C5CCCCC5)O4)O3)OC(=O)[C@@H]3C=C(C)/C(=N/O)[C@H]4OC/C(=C\C=C\[C@@H]2C)[C@]43O)O[C@@H](C)[C@@H]1O [Selamectin]
- Brain Conc. Ratio mdr1(−/−)/mdr1(+/+) (P-gp (mdr1); mouse, in vivo): 4.9
- Liver Conc. Ratio mdr1(−/−)/mdr1(+/+) (P-gp (mdr1); mouse, in vivo): 0.5

SMILES: Cc1nccn1CC1CCc2c(c3ccccc3n2C)C1=O (stereo not shown) [Ondansetron]
- Brain Conc. Ratio mdr1(−/−)/mdr1(+/+) (P-gp (mdr1); mice, brain): 4.0
- Liver Conc. Ratio mdr1(−/−)/mdr1(+/+) (P-gp (mdr1); mice, liver): 0.9

SMILES: Cc1nnc2n1-c1sc(CCC(=O)N3CCOCC3)cc1C(c1ccccc1Cl)=NC2 [Apafant]
- Brain Conc. Ratio mdr1(−/−)/mdr1(+/+) (P-gp (mdr1); mice, brain): 73.6
- Liver Conc. Ratio mdr1(−/−)/mdr1(+/+) (P-gp (mdr1); mice, liver): 4.5

SMILES: C=CC[C@@H]1/C=C(\C)C[C@H](C)C[C@H](OC)[C@H]2O[C@@](O)(C(=O)C(=O)N3CCCC[C@H]3C(=O)O[C@H](/C(C)=C/[C@@H]3CC[C@@H](O)[C@H](OC)C3)[C@H](C)[C@@H](O)CC1=O)[C@H](C)C[C@@H]2OC [Tacrolimus]
- Brain Conc. Ratio mdr1(−/−)/mdr1(+/+) (P-gp (mdr1); mouse, in vivo): 6.0
- Liver Conc. Ratio mdr1(−/−)/mdr1(+/+) (P-gp (mdr1); mouse, in vivo): 1.7

SMILES: CC[C@]1(O)C[C@@H]2CN(CCc3c([nH]c4ccccc34)[C@@](C(=O)OC)(c3cc4c(cc3OC)N(C)[C@H]3[C@@](O)(C(=O)OC)[C@H](OC(C)=O)[C@]5(CC)C=CCN6CC[C@]43[C@@H]65)C2)C1 [Vinblastine]
- Brain Conc. Ratio mdr1(−/−)/mdr1(+/+) (P-gp (mdr1); mice, brain): 22.4
- Liver Conc. Ratio mdr1(−/−)/mdr1(+/+) (P-gp (mdr1); mice, liver): 1.8

SMILES: O=C(O)C[C@H](O)C[C@H](O)/C=C/c1c(C2CC2)nc2ccccc2c1-c1ccc(F)cc1 [Pitavastatin]
- Brain Conc. Ratio mdr1(−/−)/mdr1(+/+) (P-gp (mdr1); mice, brain): 1.3
- Liver Conc. Ratio mdr1(−/−)/mdr1(+/+) (P-gp (mdr1); mice, liver): 0.88
- CLae (active apical efflux clearance) (P-gp; [2]): 0.030 µL/min
- CLi (diffusion clearance into an explicit membrane compartment) (P-gp; [2]): 3.5 µL/min

SMILES: CN(C)C(=O)C(CCN1CCC(O)(c2ccc(Cl)cc2)CC1)(c1ccccc1)c1ccccc1 [Loperamide]
- permeability (qualitative) [1]: high permeability
